Data reported in ChEMBL document CHEMBL1144091, “Isolation of two highly methylated polyketide derivatives from a yew-associated penicillium species” (J Nat Prod, 1999).
The source made the active and inactive calls. The calls are words filed in the database; no cut-off is given here.

Tests used:
Candida albicans = assay: Antifungal activity against Candida albicans at 500 ug/disk; assay type: functional, organism-based
Aspergillus niger = assay: Antifungal activity against Aspergillus niger at 500 ug/disk; assay type: functional, organism-based
Sclerotinia sclerotiorum [1] = assay: Antifungal activity against Sclerotinia sclerotiorum at 0.00011 uM/disk after 96 hrs; assay type: functional; conditions: read-out: IZ
Geotrichum candidum = assay: Antifungal activity against Geotrichum candidum at 500 ug/disk; assay type: functional, organism-based
Helminthosporium = assay: Antifungal activity against Helminthosporium sativum at 500 ug/disk; assay type: functional, organism-based
Aspergillus flavus = assay: Antifungal activity against Aspergillus flavus at 500 ug/disk; assay type: functional, organism-based
Fusarium oxysporum = assay: Antifungal activity against Fusarium oxysporum at 500 ug/disk; assay type: functional, organism-based
Artemia = assay: Toxicity against brine shrimp at 500 ug/mL; assay type: organism-based; conditions: in vivo
Sclerotinia sclerotiorum [2] = assay: Antifungal activity against Sclerotinia sclerotiorum at 0.00034 uM/disk after 96 hrs; assay type: functional; conditions: read-out: IZ

| Compound | Activity (Candida albicans) | Activity (Aspergillus niger) | zone of inhibition at 0.00011 µM (Sclerotinia sclerotiorum [1]) | Activity (Geotrichum candidum) | Activity (Helminthosporium) | Activity (Aspergillus flavus) | Activity (Fusarium oxysporum) | Activity (Artemia) | zone of inhibition at 0.00034 µM (Sclerotinia sclerotiorum [2]) |
| --- | --- | --- | --- | --- | --- | --- | --- | --- | --- |
| CC1=C[C@H]2C[C@H](C)[C@@H](O)[C@H](C)[C@H]2[C@H](/C=C(C)/C=C(C)/C=C/C(=O)O)/C1=C\C(=O)CO | inactive | inactive | 17 mm | inactive | inactive | inactive | inactive | Non-toxic | – |
| CC1=C[C@H]2C[C@H](C)[C@@H](O)[C@H](C)[C@H]2[C@H](/C=C(C)/C=C(C)\C=C\C(=O)O)/C1=C\C(=O)CO | inactive | inactive | – | inactive | inactive | inactive | inactive | Non-toxic | 16 mm |
